Data as given in publication PMC11054638, “Transport of Non-Steroidal Anti-Inflammatory Drugs across an Oral Mucosa Epithelium In Vitro Model” (Pharmaceutics, 2024).

Tested on: TR146 oral mucosa in vitro model
Test: High-throughput (96.96) qPCR chip, mRNA expression after inflammation studies
Type: cell-based, human
Conditions: 48 h, normalised to control; mean ± SD
Experimental: ThinCerts® were seeded with cells as described above. […] Three days before the experiments, cell layers and blanks were washed twice on the basolateral compartment with 900 µL cultivation media (DMEM supplemented with 10% Fetal Calf Serum and 1% Penicillin/Streptomycin) to remove anti-inflammatory hydrocortisone residues (a component of media supplement HKGS) and were further cultivated in cultivation media.
Prior to treating cells with prepared DMEM solutions, TEER was measured in cultivation media DMEM supplemented with 1% Penicillin/Streptomycin and 10% Fetal Calf Serum. Subsequently, cell layers and blanks were washed with DMEM (without supplements) twice on the apical and basolateral compartment, followed by TEER measurements in DMEM. Media of cells were replaced with previously prepared DMEM solutions. Control media was applied on the blanks. […] Subsequently, 10 µM carboxyfluorescein was added to the apical DMEM solutions and incubated in the incubator at 37 °C for 2 h. Media were immediately collected and measured for the RFU content using the EnSpire as described above. Afterwards, media were stored at −20 °C until further usage. Two cell-grown ThinCerts^TM of each treatment were pooled as one sample with 350 µL lysis buffer supplemented with 1% ß-mercaptoethanol and stored at −80 °C for RNA isolation.
In short, RNA samples collected at the 48-hour timepoint of the inflammation studies and generated by pooling two cell-grown inserts were tested as duplicates on the expression of 95 markers and 1 negative control (H2O). The mRNA samples were amplified with three different primer pools containing 54 primers (PPIA, ACTB, GAPDH, B2M, CLDN1, CLDN2, CLDN3, CLDN4, CLDN5, CLDN6, CLDN7, CLDN8, CLDN9, CLDN10tva, […]
MARVELD2, ZO-1, ZO-2, ZO-3, SLC2A1, SLC7A1, SLC7A5, SLC16A1, ABCB1, ABCC1, ABCC2, ABCC3, ABCC4, ABCC5, ABCG2, INSR, LRP1, TFRC, VEGF-A, CDH5, VWF), 32 primers (CK1, CK4, […]
Quality control of generated data excluded Ct measured outside of the marker’s melting temperature ± 1.5 °C. To calculate the relative expression for each marker, the relative quantitative value was first calculated by subtracting the mean Ct values of control samples from the Ct values of treated samples and potentiating the resulting ΔCt by the power of 2 (=2ΔCt). The geometric mean of housekeeping genes […]
the relative quantitative value of each marker was divided by the calculated geometric mean of housekeeping genes of the respective sample. Subsequent expression values of treated samples were […]
Tested RNA samples were collected after three independent experiments with 4 treatment groups (Control, INF, INF+Ibu, Ibu) per experiment (N=12). Statistical analysis was performed as two-way ANOVA with post hoc Holm–Sidak test with *p<0.05, **p<0.01, ***p<0.001 and […]

Structure (SMILES): CC(C)Cc1ccc(C(C)C(=O)O)cc1 (stereo not drawn) [ibuprofen]
- ABCB1 mRNA expression: 1.01± 0.04 n-fold
- ABCC1 mRNA expression: 1.26± 0.46 n-fold
- ABCC2 mRNA expression: 0.7± 0.65 n-fold
- ABCC3 mRNA expression: 0.97± 1.21 n-fold
- ABCC4 mRNA expression: 1.46± 0.5 n-fold
- ABCC5 mRNA expression: 0.69± 0.34 n-fold
- ABCG2 mRNA expression: 0.87± 1.23 n-fold
- AMY mRNA expression: 0.38± 0.43 n-fold
- AQP1 mRNA expression: 0.34± 0.19 n-fold
- AQP3 mRNA expression: 0.76± 0.67 n-fold
- AQP5 mRNA expression: 1.57± 1.16 n-fold
- AQP9 mRNA expression: 0.93± 0.04 n-fold
- AQP10 mRNA expression: 1.38± 0.72 n-fold
- AQP11 mRNA expression: 0.66 ± 0.07 n-fold
- CDH1 mRNA expression: 0.93± 0.62 n-fold
- CK1 mRNA expression: 11.98± 16.81 n-fold
- CK4 mRNA expression: 1.53± 1.73 n-fold
- CK5 mRNA expression: 0.27± 0.28 n-fold
- CK7 mRNA expression: 3.07± 2.11 n-fold
- CK8 mRNA expression: 0.92± 0.68 n-fold
- CK10 mRNA expression: 1.63± 2.38 n-fold
- CK13tv1 mRNA expression: 1.34± 0.93 n-fold
- CK14 mRNA expression: 1.53± 0.93 n-fold
- CK18 mRNA expression: 0.79± 0.85 n-fold
- CK19 mRNA expression: 1.53± 0.26 n-fold
- CLDN1 mRNA expression: 0.52± 0.71 n-fold
- CLDN2 mRNA expression: 5.02 n-fold
- CLDN3 mRNA expression: 1.95 n-fold
- CLDN4 mRNA expression: 0.74± 1.1 n-fold
- CLDN5 mRNA expression: 7.17± 10.76 n-fold
- CLDN6 mRNA expression: 1.83± 0.78 n-fold
- CLDN7 mRNA expression: 0.51± 0.72 n-fold
- CLDN8 mRNA expression: 0.49± 0.46 n-fold
- CLDN9 mRNA expression: 1.07± 1.46 n-fold
- CLDN10tva mRNA expression: 1.49± 2.21 n-fold
- CLDN11 mRNA expression: 0.6± 0.1 n-fold
- CLDN12tv1 mRNA expression: 0.73± 0.3 n-fold
- CLDN12tv2 mRNA expression: 0.47± 0.35 n-fold
- CLDN12tv3 mRNA expression: 0.79± 0.25 n-fold
- CLDN14 mRNA expression: 1.51 n-fold
- CLDN15 mRNA expression: 0.98± 0.96 n-fold
- CLDN16 mRNA expression: 1.79± 1.1 n-fold
- CLDN17 mRNA expression: 1.66± 1.15 n-fold
- CLDN18tv2a mRNA expression: 6.08± 8.62 n-fold
- CLDN21 mRNA expression: 1.29 n-fold
- CLDN22 mRNA expression: 0.4± 0.53 n-fold
- CLDN24 mRNA expression: 0.62 n-fold
- CLDN25tv1-4 mRNA expression: 0.65± 0.77 n-fold
- CLDN25tv7 mRNA expression: 1.34± 0.38 n-fold
- CLDN27 mRNA expression: 0.26 n-fold
- DSG3 mRNA expression: 0.83± 0.85 n-fold
- INSR mRNA expression: 0.52± 0.39 n-fold
- JAM1 mRNA expression: 0.5± 0.67 n-fold
- JAM2 mRNA expression: 0.55 n-fold
- LOR mRNA expression: 2.69± 2.89 n-fold
- LRP1 mRNA expression: 0.68± 0.36 n-fold
- MARVELD2 mRNA expression: 2.92± 1.97 n-fold
- MFSD2A mRNA expression: 0.85± 0.6 n-fold
- MUC1A mRNA expression: 0.53± 0.42 n-fold
- MUC1B mRNA expression: 0.81± 0.36 n-fold
- MUC3A mRNA expression: 2.34± 2.52 n-fold
- MUC5AC mRNA expression: 0.76± 0.17 n-fold
- MUC15tv2 mRNA expression: 0.46± 0.21 n-fold
- MUC18 mRNA expression: 0.89± 0.56 n-fold
- MUC20 mRNA expression: 1.43± 0.61 n-fold
- OCLN mRNA expression: 1.16± 1.05 n-fold
- PECAM1 mRNA expression: 0.77 n-fold
- SLC2A1 mRNA expression: 0.4± 0.26 n-fold
- SLC7A1 mRNA expression: 0.54± 0.49 n-fold
- SLC7A5 mRNA expression: 0.56± 0.91 n-fold
- SLC16A1 mRNA expression: 0.32± 0.48 n-fold
- TFRC mRNA expression: 0.79± 0.87 n-fold
- VEGF-A mRNA expression: 0.5± 0.27 n-fold
- VIM mRNA expression: 0.56± 0.52 n-fold
- VWF mRNA expression: 1.28 n-fold
- ZO-1 mRNA expression: 0.91± 0.81 n-fold
- ZO-2 mRNA expression: 1.26± 0.5 n-fold
- ZO-3 mRNA expression: 0.51± 0.84 n-fold
